These results are taken from PubChem BioAssay AID218 (DTP/NCI, 2004).

Structures are written as SMILES. Values joined by “and” are separate entries in the source; they are usually repeats but may differ in a detail not shown here. Equal entries are not always repeated. Non-standard residues stand in square brackets, D forms with d. Residues, ends and D or L forms follow the SMILES beside them. Ac5c = NC1(C(=O)O)CCCC1

This assay relates to C57BL/6 mice, Adenocarcinoma 755 sc, tumor weight T/C. The assay is described as follows: NCI In Vivo Anticancer Drug Screen. Data for tumor model Adenocarcinoma 755 (subcutaneous) in C57BL/6 mice. As to conditions: endpoint: mean tumor weight, higher = larger tumour. Here is the method: The antitumor activity of compounds was measured in mice bearing transplantable tumors. Survival or tumor size were measured and the results are expressed as the measurement made in the treated group (T) divided by the measurement made in the vehicle treated control group (C). The tumor model used in this assay is Adenocarcinoma 755 (subcutaneous) in C57BL/6 mice

Where [1] appears, read: dose: 25.0 mg/kg/injection, schedule: Q01DX011 (ip), vehicle: saline.
Where [2] appears, read: dose: 50.0 mg/kg/injection, schedule: Q01DX011 (ip), vehicle: saline.
The mark [3] stands for this setting: dose: 100.0 mg/kg/injection, schedule: Q01DX011 (ip), vehicle: saline.
Setting [4] is: dose: 200.0 mg/kg/injection, schedule: Q01DX011 (ip), vehicle: saline.
Setting [5] is: dose: 20.0 mg/kg/injection, schedule: Q01DX011 (ip), vehicle: saline.
Setting [6] is: dose: 10.0 mg/kg/injection, schedule: Q01DX011 (ip), vehicle: saline.
The mark [7] stands for this setting: dose: 15.0 mg/kg/injection, schedule: Q01DX011 (ip), vehicle: saline.

A word on the T/C: it is the ratio of treated to control.

Consider `Oc1ccc2ccccc2c1N=Nc1ccc(F)cc1`, for which the T/C is, setting by setting: (dose: 6.25 mg/kg/injection, schedule: Q01DX011 (ip), vehicle: saline) 55 % of control; (dose: 12.5 mg/kg/injection, schedule: Q01DX011 (ip), vehicle: saline) 45 % of control; under setting [1], 37 % of control; under setting [2], 30 % of control and 35 % of control; under setting [3], 28 % of control; under setting [4], 12 % of control. Moreover, the T/C (dose: 400.0 mg/kg/injection, schedule: Q01DX011 (ip), vehicle: saline) was 28 % of control.

In the case of `CN(C)c1ncnc2c1ncn2C1OC(CO)C(N)C1O` (centres undefined), the T/C reads like this: under setting [5], 23 % of control; under setting [1], 62 % of control; (dose: 30.0 mg/kg/injection, schedule: Q01DX011 (ip), vehicle: saline) 13 % of control; (dose: 35.0 mg/kg/injection, schedule: Q01DX011 (ip), vehicle: saline) 9 % of control.

As for `COC(=O)C(N)CCl` (centres undefined), the T/C is, setting by setting: (dose: 150.0 mg/kg/injection, schedule: Q02DX006 (ip), vehicle: saline) 74 % of control; (dose: 200.0 mg/kg/injection, schedule: Q02DX006 (ip), vehicle: saline) 83 % of control.

On to `CCOC(C)C(/C=N/NC(N)=S)=NNC(N)=S` (centres undefined), for which the T/C (dose: 120.0 mg/kg/injection, schedule: Q01DX011 (ip), vehicle: saline) is 59 % of control.

For the molecule `Nc1nc(=S)c2ncn(C3OC(COC(=O)c4ccccc4)C(OC(=O)c4ccccc4)C3OC(=O)c3ccccc3)c2[nH]1` (centres undefined), the T/C was 90 % of control (dose: 3.1 mg/kg/injection, schedule: Q01DX011 (ip), vehicle: methylcellulose (MC)); 62 % of control (dose: 6.25 mg/kg/injection, schedule: Q01DX011 (ip), vehicle: methylcellulose (MC)); 77 % of control (dose: 12.5 mg/kg/injection, schedule: Q01DX011 (ip), vehicle: methylcellulose (MC)); 16 % of control (dose: 25.0 mg/kg/injection, schedule: Q01DX011 (ip), vehicle: methylcellulose (MC)).

`Nc1nc(F)nc2c1ncn2C1OC(CO)C(O)C1O` (centres undefined): the T/C (dose: 2.0 mg/kg/injection, schedule: Q01DX011 (ip), vehicle: carboxymethylcellulose (CMC)) is 87 % of control.

On to `Cn1c(N)nc2nc[nH]c2c1=S`, for which the T/C runs as follows: (dose: 1.0 mg/kg/injection, schedule: Q01DX008 (iv), vehicle: saline) 169 % of control; (dose: 2.0 mg/kg/injection, schedule: Q01DX008 (iv), vehicle: saline) 173 % of control; (dose: 4.0 mg/kg/injection, schedule: Q01DX008 (iv), vehicle: saline) 79 % of control; (dose: 32.0 mg/kg/injection, schedule: Q01DX008 (iv), vehicle: saline) 67 % of control; (dose: 64.0 mg/kg/injection, schedule: Q01DX008 (iv), vehicle: saline) 65 % of control.

For the molecule `NCC(=O)NC1(C(=O)O)CCCC1` (H-Gly-[Ac5c]-OH), the T/C is, setting by setting: under setting [1], 58 % of control; under setting [2], 37 % of control; under setting [3], 9 % of control.

`CC1CN1P(=S)(N1CC1C)N1CC1C` (centres undefined): the T/C reads like this: (dose: 1.25 mg/kg/injection, schedule: Q01DX011 (ip), vehicle: saline) 67 % of control; (dose: 2.5 mg/kg/injection, schedule: Q01DX011 (ip), vehicle: saline) 78 % of control; (dose: 5.0 mg/kg/injection, schedule: Q01DX011 (ip), vehicle: saline) 91 % of control; under setting [6], 73 % of control.

For `CN(C)C1C(=O)C(C(N)=O)=C(O)C2(O)C(=O)C3=C(O)c4c(O)cccc4C(C)(O)C3C(O)C12` (centres undefined), the T/C is 58 % of control (dose: 125.0 mg/kg/injection, schedule: Q02DX006 (ip), vehicle: water) and 106 % of control (dose: 150.0 mg/kg/injection, schedule: Q02DX006 (ip), vehicle: water).

Take `O=c1[nH]cnc2n[nH]nc12`: the T/C by setting is: (dose: 150.0 mg/kg/injection, schedule: Q01DX011 (ip), vehicle: saline) 55 % of control; under setting [4], 20 % of control.

`COC1=C(N)C(=O)c2nc(-c3nc(C(=O)O)c(C)c(-c4ccc(OC)c(OC)c4O)c3N)ccc2C1=O`: the T/C by setting is: (dose: 0.06 mg/kg/injection, schedule: Q01DX011 (ip), vehicle: saline) 84 % of control; (dose: 0.09 mg/kg/injection, schedule: Q01DX011 (ip), vehicle: saline) 77 % of control; (dose: 0.13 mg/kg/injection, schedule: Q01DX011 (ip), vehicle: saline) 64 % of control; (dose: 0.2 mg/kg/injection, schedule: Q01DX011 (ip), vehicle: saline) 38 % of control.

Regarding `CC[N+](CC)(CC)CCO`, the T/C was 51 % of control (dose: 5.0 mg/kg/injection, schedule: Q02DX006 (ip), vehicle: saline); 25 % of control (dose: 10.0 mg/kg/injection, schedule: Q02DX006 (ip), vehicle: saline); 33 % of control (dose: 15.0 mg/kg/injection, schedule: Q02DX006 (ip), vehicle: saline).

For the molecule `CC(C)C(=O)OCC1OC(n2cnc3c(=S)nc(N)[nH]c32)C(OC(=O)C(C)C)C1OC(=O)C(C)C` (centres undefined), the T/C is 68 % of control (dose: 1.5 mg/kg/injection, schedule: Q01DX011 (ip), vehicle: saline) and 25 % of control (dose: 3.0 mg/kg/injection, schedule: Q01DX011 (ip), vehicle: saline).

As to `c1ccc(Sc2ncnc3nc[nH]c23)cc1`, the T/C is, setting by setting: under setting [2], 15 % of control; (dose: 75.0 mg/kg/injection, schedule: Q01DX011 (ip), vehicle: saline) 14 % of control; under setting [3], 5 % of control.

With `CSc1nc(N)nc2nc[nH]c12`, the T/C under setting [6] is 1 % of control and the T/C under setting [7] was 1 % of control.

In the case of `Nc1ncnc2[nH]ncc12`, the T/C (dose: 10.0 mg/kg/injection, schedule: Q02DX006 (ip), vehicle: other) is 28 % of control; the T/C under setting [7] was 7 % of control and 22 % of control; the T/C under setting [5] was 9 % of control; the T/C (dose: 20.0 mg/kg/injection, schedule: Q02DX006 (ip), vehicle: other) was 16 % of control; the T/C (dose: 40.0 mg/kg/injection, schedule: Q02DX006 (ip), vehicle: other) is 4 % of control.
